The supplement of paper PMC4932681

Assays:
[1] = tested on: BT-474; test: relative IC50 (midpoint of fitted logistic curve, plateau may be below 50% inhibition; CellTiter-Glo viability); higher = less potent; settings: 72 h
Procedure: (§1)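 FIMM FO2B library drugs were plated at 5 concentrations spanning a 10,000-fold range in 384-well plates. Cells were incubated for 72 h at 37 °C and viability was read by CellTiter-Glo, normalised to DMSO (0% inhibition) and 100 µM benzethonium chloride (100% inhibition). IC50 values come from logistic dose-response fits (Breeze pipeline). Tamoxifen-resistant lines and the 'in 1µM tamoxifen' parental arms were tested in medium with 1 µM 4-OH-tamoxifen.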

[2] = tested on: BT-474 Tam2; test: as above; settings: 4-OH-tamoxifen in medium 1 µM; 72 h
Procedure: as §1

[3] = tested on: ZR-75-1; test: as above; settings: 72 h
Procedure: as §1

[4] = tested on: MCF-7; test: as above; settings: 72 h
Procedure: as §1

[5] = tested on: MCF-7 Tam1; test: as above; settings: 4-OH-tamoxifen in medium 1 µM; 72 h
Procedure: as §1

[6] = tested on: BT-474 Tam1; test: as above; settings: 4-OH-tamoxifen in medium 1 µM; 72 h
Procedure: as §1

[7] = tested on: T-47D Tam1; test: as above; settings: 4-OH-tamoxifen in medium 1 µM; 72 h
Procedure: as §1

[8] = tested on: T-47D; test: as above; settings: 72 h
Procedure: as §1

[9] = tested on: ZR-75-1 Tam2; test: as above; settings: 4-OH-tamoxifen in medium 1 µM; 72 h
Procedure: as §1

[10] = tested on: BT-474; test: drug sensitivity score (DSS) (DSS (dimensionless)); higher = more sensitive; extreme values may be limits of the assay; settings: 72 h
Procedure: (§2)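 FIMM FO2B library drugs were tested at 5 concentrations (10,000-fold range) for 72 h, with CellTiter-Glo viability normalised to DMSO and benzethonium chloride controls. The Drug Sensitivity Score (DSS) is computed from the fitted logistic dose-response curve (area-based; 0 = inactive). Resistant lines and the 'in 1µM tamoxifen' arms were tested in 1 µM 4-OH-tamoxifen.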

[11] = tested on: BT-474 Tam2; test: as above; settings: 4-OH-tamoxifen in medium 1 µM; 72 h
Procedure: as §2

[12] = tested on: ZR-75-1; test: as above; settings: 72 h
Procedure: as §2

[13] = tested on: MCF-7; test: as above; settings: 72 h
Procedure: as §2

[14] = tested on: MCF-7 Tam1; test: as above; settings: 4-OH-tamoxifen in medium 1 µM; 72 h
Procedure: as §2

[15] = tested on: BT-474 Tam1; test: as above; settings: 4-OH-tamoxifen in medium 1 µM; 72 h
Procedure: as §2

[16] = tested on: T-47D Tam1; test: as above; settings: 4-OH-tamoxifen in medium 1 µM; 72 h
Procedure: as §2

[17] = tested on: T-47D; test: as above; settings: 72 h
Procedure: as §2

[18] = tested on: ZR-75-1 Tam1; test: as above; settings: 4-OH-tamoxifen in medium 1 µM; 72 h
Procedure: as §2

[19] = tested on: T-47D Tam2; test: as above; settings: 4-OH-tamoxifen in medium 1 µM; 72 h
Procedure: as §2

[20] = tested on: ZR-75-1 Tam2; test: as above; settings: 4-OH-tamoxifen in medium 1 µM; 72 h
Procedure: as §2

[21] = tested on: ZR-75-1 Tam1; test: relative IC50 (midpoint of fitted logistic curve, plateau may be below 50% inhibition; CellTiter-Glo viability); higher = less potent; settings: 4-OH-tamoxifen in medium 1 µM; 72 h
Procedure: as §1

SMILES	relative IC50 ([1]; 4-OH-tamoxifen in medium 0 µM)	relative IC50 ([1]; 4-OH-tamoxifen in medium 1 µM)	relative IC50 [2]	relative IC50 ([4]; 4-OH-tamoxifen in medium 0 µM)	relative IC50 ([4]; 4-OH-tamoxifen in medium 1 µM)	relative IC50 [5]	relative IC50 [6]	relative IC50 [7]	relative IC50 ([8]; 4-OH-tamoxifen in medium 0 µM)	relative IC50 ([8]; 4-OH-tamoxifen in medium 1 µM)	relative IC50 ([3]; 4-OH-tamoxifen in medium 0 µM)	relative IC50 ([3]; 4-OH-tamoxifen in medium 1 µM)	relative IC50 [9]	drug sensitivity score ([10]; 4-OH-tamoxifen in medium 0 µM)	drug sensitivity score ([10]; 4-OH-tamoxifen in medium 1 µM)	drug sensitivity score [11]	drug sensitivity score ([12]; 4-OH-tamoxifen in medium 0 µM)	drug sensitivity score ([12]; 4-OH-tamoxifen in medium 1 µM)	drug sensitivity score ([13]; 4-OH-tamoxifen in medium 0 µM)	drug sensitivity score ([13]; 4-OH-tamoxifen in medium 1 µM)	drug sensitivity score [14]	drug sensitivity score [15]	drug sensitivity score [16]	drug sensitivity score ([17]; 4-OH-tamoxifen in medium 0 µM)	drug sensitivity score ([17]; 4-OH-tamoxifen in medium 1 µM)	drug sensitivity score [18]	drug sensitivity score [19]	drug sensitivity score [20]	relative IC50 [21]
CN(C)CCN1C(=O)c2cccc3cc(N)cc(c23)C1=O [Amonafide]	> 10 µM	> 10 µM	> 10 µM	3.26 µM		> 10 µM	> 10 µM	> 10 µM		> 10 µM	3.51 µM			0	0	0	1.49	0.169	2.63	0.126	0	0	0	0.496	0	0.0369	0	0.594	
COc1cc2nccc(Oc3ccc(NC(=O)C4(C(=O)Nc5ccc(F)cc5)CC4)cc3)c2cc1OC [Cabozantinib (XL184)]	> 1 µM		> 1 µM	> 1 µM		> 1 µM		> 1 µM	> 1 µM	> 1 µM	> 1 µM	> 1 µM	> 1 µM	0	0.138	0	0	0	0	0.282	0	0.113	0	0	0	0.0383	0.0065	0	
Nc1nc(Cl)nc2c1ncn2[C@@H]1O[C@H](CO)[C@@H](O)[C@@H]1F [Clofarabine]	> 10 µM	> 10 µM	> 10 µM	0.49 µM		> 10 µM	> 10 µM	0.616 µM	4.1 µM					0	0	0	0.522	0.104	4.41	2.44	0	0	5.4	1.21	0.982	1.26	1.77	0.782	
C[C@@H]1C[C@H]2[C@@H]3CCC4=CC(=O)C=C[C@]4(C)[C@@]3(F)[C@@H](O)C[C@]2(C)[C@@]1(O)C(=O)CO [Dexamethasone  (Decadron)]	> 10 µM	> 10 µM	> 10 µM	> 10 µM		> 10 µM		> 10 µM	> 10 µM	> 10 µM	> 10 µM	> 10 µM		0	0	0	0	0	0	1.88	0	0	0	0	0	0	0	0.209	> 10 µM
Nc1ccn([C@@H]2O[C@H](CO)[C@@H](O)C2(F)F)c(=O)n1 [Gemcitabine]	> 1 µM	> 1 µM	> 1 µM			> 1 µM	> 1 µM	> 1 µM	0.0604 µM	> 1 µM				0	0	0	6.28	0.865	5.69	0.509	0	0	0	4.36	0	0	0.815	0.493	> 1 µM

Now from value to compound, other results behind:

relative IC50 ([1]; 4-OH-tamoxifen in medium 0 µM)	relative IC50 ([1]; 4-OH-tamoxifen in medium 1 µM)	relative IC50 [2]	relative IC50 ([4]; 4-OH-tamoxifen in medium 0 µM)	relative IC50 ([4]; 4-OH-tamoxifen in medium 1 µM)	relative IC50 [5]	relative IC50 [6]	relative IC50 [7]	relative IC50 ([8]; 4-OH-tamoxifen in medium 0 µM)	relative IC50 ([8]; 4-OH-tamoxifen in medium 1 µM)	SMILES	relative IC50 ([3]; 4-OH-tamoxifen in medium 0 µM)	relative IC50 ([3]; 4-OH-tamoxifen in medium 1 µM)	relative IC50 [9]	drug sensitivity score ([10]; 4-OH-tamoxifen in medium 0 µM)	drug sensitivity score ([10]; 4-OH-tamoxifen in medium 1 µM)	drug sensitivity score [11]	drug sensitivity score ([12]; 4-OH-tamoxifen in medium 0 µM)	drug sensitivity score ([12]; 4-OH-tamoxifen in medium 1 µM)	drug sensitivity score ([13]; 4-OH-tamoxifen in medium 0 µM)	drug sensitivity score ([13]; 4-OH-tamoxifen in medium 1 µM)	drug sensitivity score [14]	drug sensitivity score [15]	drug sensitivity score [16]	drug sensitivity score ([17]; 4-OH-tamoxifen in medium 0 µM)	drug sensitivity score ([17]; 4-OH-tamoxifen in medium 1 µM)	drug sensitivity score [18]	drug sensitivity score [19]	drug sensitivity score [20]	relative IC50 [21]
> 10 µM	> 10 µM	> 10 µM	> 10 µM	> 10 µM	> 10 µM	> 10 µM	> 10 µM	> 10 µM	> 10 µM	NC(=O)c1ccc(I)c([N+](=O)[O-])c1	> 10 µM	> 10 µM	> 10 µM	0	0	0	0	0	0	0	0	0	0	0	0	0	0.229	0	
	0.0609 µM		0.00668 µM	0.00894 µM	0.0527 µM	0.0863 µM	0.00744 µM	0.0278 µM	0.117 µM	Cn1c(=O)n(-c2ccc(C(C)(C)C#N)cc2)c2c3cc(-c4cnc5ccccc5c4)ccc3ncc21 [Dactolisib (NVP-BEZ235)]	0.0093 µM	0.00917 µM	0.0139 µM	6.54	5.55	4.69	12.9	10.4	18.3	11.4	3.91	4.98	13.4	10.4	7.65	12.4	4.46	12.6	0.00716 µM
2.41 µM		> 10 µM		> 10 µM	> 10 µM	> 10 µM	1.39 µM		> 10 µM	O=c1[nH]c(=O)n([C@H]2C[C@H](O)[C@@H](CO)O2)cc1F [Floxuridine]				1.78	1.44	0	6.61	0.31	0.48	0	0	0	5.88	1.05	0	0.801	1.26	4.86	
